Common to all, as to assay type: in vivo
In test [1] the test system is adult mosquitoes Aedes aegypti strain MONHEIM. Put plainly: Aedes aegypti test (AEDSAE surface treatment & contact assay). To be noted: 24 hours after contact, read-out: efficacy (mortality); for mortality at 4 mg/m2: surface concentration 4 mg/m^2, 30 minutes exposure; for mortality at 20 mg/m2: surface concentration 20 mg/m^2, 30 minutes exposure. The gist of the method: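 Compound in acetone (2 mg/ml) with 2000 ppm rapeseed oil methyl ester applied to glazed tile and dried; adult Aedes aegypti MONHEIM exposed on surface for 30 min. Percent mortality scored 24 h after contact.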

Test [2] concerns adult flies Musca domestica strain WHO-N. Put plainly: Musca domestica test (MUSCDO surface treatment & contact assay). To be noted: 24 hours after contact, read-out: efficacy (mortality); for mortality at 4 mg/m2: surface concentration 4 mg/m^2, 30 minutes exposure; for mortality at 20 mg/m2: surface concentration 20 mg/m^2, 30 minutes exposure. Here is the method:
Musca domestica Test (MUSCDO Surface Treatment & Contact Assay)
(§1) • Solvent: Aceton+2000 ppm rapeseed oil methyl ester (RME)
In order to produce a sufficient, active ingredient containing solution it is necessary to solve the test compound in the solvent-mix (acetone at 2 mg/ml/RME 2000 ppm). This solution is pipetted onto a glazed tile and after evaporation of the acetone, adult flies of the species Musca domestica strain WHO-N are placed onto the dried surface. The exposure time is 30 minutes.
Mortality in percent (%) is determined 24 hours after contact of the insects to the treated surface. 100% mortality means that all tested insects are dead, whereas 0% means that no insect died.

Test [3] concerns green peach aphid (Myzus persicae). In words: Myzus persicae oral test. To be noted: 120 h, after 5 days. Here is the method:
• Solvent: 100 parts by weight acetone
To produce a suitable preparation of active compound, 1 part by weight of active compound is mixed with the stated amount of solvent, and the concentrate is diluted with water to the desired concentration.
50 μL compound solution is filled in microtiter plates and 150 μL IPL41 insect medium (33%+15% sugar) is added to obtain a total volume of 200 μL per well. Afterwards the plates are sealed with parafilm through which a mixed population of the green peach aphid (Myzus persicae) can suck on the compound preparation.
After 5 days mortality in % is determined. 100% means all aphids have been killed and 0% means none of the aphids have been killed.

Test [4] relates to adult mosquitoes Culex quinquefasciatus strain P00. In words: Culex quinquefasciatus test (CULXFA surface treatment & contact assay). To be noted: surface concentration 20 mg/m^2, 30 minutes exposure, 24 hours after contact, read-out: efficacy (mortality). Here is the method:
Culex quinquefasciatus Test (CULXFA Surface Treatment & Contact Assay)
as §1
In order to produce a sufficient, active ingredient containing solution it is necessary to solve the test compound in the solvent-mix (acetone at 2 mg/ml/RME 2 000 ppm). This solution is pipetted onto a glazed tile and after evaporation of the acetone, adult mosquitoes of the species Culex Quinquefasciatus strain P00 are placed onto the dried surface. The exposure time is 30 minutes. Mortality in percent (%) is determined 24 hours after contact of the insects to the treated surface. 100% mortality means that all tested insects are dead, whereas 0% means that no insect died.

Test [5] concerns Rhipicephalus (Boophilus) microplus larvae (strain Parkhurst, resistant against synthetic pyrethroids). In words: Rhipicephalus (Boophilus) microplus in-vitro contact test, larval cattle tick. Particulars: 5 μg/cm^2 (=500 g/ha), after 48 hours, read-out: efficacy (larvae dead or moribund). An outline of the steps: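 Acetone solutions coated onto glass tube walls, 900 ppm giving 5 μg/cm^2; 20–50 larvae per tube after solvent evaporation. Incubated 48 h at 27 °C, 85% relative humidity; efficacy from negative geotaxis, 100% meaning all larvae dead or moribund.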

Test [6] has as its system larvae of the southern green stink bug (Nezara viridula). In words: Nezara viridula spray test. To be noted: 96 h, after 4 days, barley plants. An outline of the steps: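 Percent mortality of southern green stink bug larvae was recorded at day 4, with 100% meaning all dead. The larvae were placed on barley sprayed with the test solution. That solution was prepared from acetone/dimethylformamide concentrate diluted in emulsifier-containing water (1000 ppm).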

Test [7] deals with fall armyworm larvae (Spodoptera frugiperda). Put plainly: Spodoptera frugiperda spray test. Particulars: in Zea mays, 168 h. An outline of the steps:
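Maize leaf sections were sprayed with compound in acetone/dimethylformamide diluted in water with 1000 ppm emulsifier, dried, then infested with larvae. Mortality in % was scored after 7 days, 100% meaning all caterpillars killed.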

Test [8] has as its system adult cat fleas (Ctenocephalides felis). Put plainly: Ctenocephalides felis in-vitro contact test, adult cat flea. Particulars: 5 μg/cm^2 (=500 g/ha), after 48 hours, read-out: efficacy (fleas dead or moribund). Here is the method:
Ctenocephalides felis—In-Vitro Contact Tests Adult Cat Flea
(§2) 9 mg compound is solved in 1 mL acetone and diluted with acetone to the desired concentration. 250 μL of the test solution is filled in 25 mL glass test tubes and homogeneously distributed on the inner walls by rotation and tilting on a shaking device (2 h at 30 rpm). With a compound concentration of 900 ppm, an inner surface of 44.7 cm^2 and a homogeneous distribution, a dose of 5 μg/cm^2 is achieved.
After the solvent has evaporated, each test tube is filled with 5-10 adult cat fleas (Ctenocephalides felis), closed with a perforated lid and incubated in a lying position at room temperature and relative humidity. After 48 hours efficacy is determined. The fleas are patted on the ground of the tubes and are incubated on a heating plate at 45-50° C. for at most 5 minutes Immotile or uncoordinated moving fleas, which are not able to escape the heat by climbing upwards, are marked as dead or moribund.
An efficacy of 100% means all fleas are dead or moribund; 0% means no fleas are dead or moribund.

In test [9] the test system is adult brown dog ticks (Rhipicephalus sanguineus). In words: Rhipicephalus sanguineus in-vitro contact test, adult brown dog ticks. To be noted: 5 μg/cm^2 (=500 g/ha), after 48 hours, read-out: efficacy (ticks dead or moribund). Here is the method: Rhipicephalus sanguineus—In-Vitro Contact Tests with Adult Brown Dog Ticks
as §2
After the solvent has evaporated, each test tube is filled with 5-10 adult brown dog ticks (Rhipicephalus sanguineus), closed with a perforated lid and incubated in a lying position at room temperature and relative humidity. After 48 hours efficacy is determined. The ticks are patted on the ground of the tubes and are incubated on a heating plate at 45-50° C. for at most 5 minutes Immotile or uncoordinated moving ticks, which are not able to escape the heat by climbing upwards, are marked as dead or moribund.
An efficacy of 100% means all ticks are dead or moribund; 0% means no ticks are dead or moribund.

Test [10] relates to larvae of the banded cucumber beetle (Diabrotica balteata). In words: Diabrotica balteata spray test. To be noted: 168 h, after 7 days, wheat seeds, read-out: efficacy (seedling growth); for pest or weed control at 32 µg/disc, 100 g/ha: 100 g/ha (=32 μg/well); for pest or weed control at 160 µg/disc, 500 g/ha: 500 g/ha (=160 μg/well). The gist of the method: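 Efficacy is seedling survival after 7 days, where 0% means no seedlings grew and 100% means growth equal to untreated, uninfested controls. Wheat seedlings, germinated on agar for 1 day, were sprayed with the aqueous emulsifier dilution (acetone/DMF solvent) and then exposed to 10–20 banded cucumber beetle larvae.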

Test [11] deals with southern root-knot nematode (Meloidogyne incognita). Put plainly: Meloidogyne incognita test. Particulars: 20 ppm, after 14 days. Here is the method:
Meloidogyne incognita—Test
• Solvent: 125.0 parts by weight of acetone
To produce a suitable preparation of active compound, 1 part by weight of active compound is mixed with the stated amount of solvent, and the concentrate is diluted with water to the desired concentration. Vessels are filled with sand, a solution of the active ingredient, a suspension containing eggs and larvae of the southern root-knot nematode (Meloidogyne incognita) and salad seeds. The salad seeds germinate and the seedlings grow. Galls develop in the roots.
After 14 days the nematicidal activity is determined on the basis of the percentage of gall formation. 100% means no galls were found and 0% means the number of galls found on the roots of the treated plants was equal to that in untreated control plants.

In test [12] the test system is adult engorged female ticks (Rhipicephalus microplus). In words: Rhipicephalus (Boophilus) microplus injection test. To be noted: 168 h, egg deposition monitored after 7 days, read-out: efficacy (infertile eggs). An outline of the steps:
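Five adult engorged female ticks each injected with 1 μL of DMSO compound solution into the abdomen, then kept in a climate chamber. Fertile egg deposition assessed after 7 days, with hatching followed to about 42 days; efficacy 100% means all eggs infertile, 0% all fertile.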

Test [13] relates to green peach aphid (Myzus persicae). In words: Myzus persicae spray test. Particulars: foliar, 120 h, after 5 days, Chinese cabbage leaf disks. An outline of the steps: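 Chinese cabbage leaf disks infested with all aphid instars were sprayed with compound in acetone/DMF, diluted in water with 1000 ppm alkylarylpolyglycol ether emulsifier. Mortality (%) scored after 5 days, 100% meaning all aphids killed.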

The mortality is the share of the test organisms that died.

Structures are written as SMILES.

On to `C[C@H](NC(=O)c1cc(Cl)cc(C(=O)C2CC2)c1)c1ncnn1-c1ccc(C#N)cn1` [Example I-35], for which the mortality at 4 mg/m2 in test [1] and in test [2] was 80 to 100% throughout. The mortality at 20 mg/m2 in test [1], in [2] and in test [4] was 80 to 100% each time. In addition, in test [3], the mortality at 4 ppm was 100%. Besides, the results for the pest or weed control at 5 µg/cm2, 5 µg/cm2 in test [5], in test [8] and in test [9] were 100%, 100% and 80%, respectively. For the same compound, the mortality at 100 g/ha in test [6] and in [7] was 100% in each case. For the same compound, the pest or weed control at 32 µg/disc, 100 g/ha in test [10] was 100%.
For `C[C@H](NC(=O)c1cc(Cl)cc(OC(C)(C)C#N)c1)c1ncnn1-c1ncc(C#N)s1` [Example I-61], the mortality at 100 g/ha in test [7] amounted to 100%. For the same compound, the “nematicidal activity (gall formation)” value in test [11] is reported as 90%. Further, in [10], the pest or weed control at 32 µg/disc, 100 g/ha turned out to be 100%.
As to `COc1nc([C@H](C)NC(=O)c2cc(Cl)cc(C(C)(C)C#N)c2)n(-c2ccc(C#N)cn2)n1` [Example I-39], the mortality at 100 g/ha in test [7] stood at 100%. Also, the “nematicidal activity (gall formation)” value in test [11] is 100%. Also, in [10], the pest or weed control at 32 µg/disc, 100 g/ha came to 100%.
On to `CCN(C)C(=O)c1ccc(-n2nc(C)nc2[C@H](C)NC(=O)c2cc(Cl)cc(C(C)(C)C#N)c2)nc1` [Example I-52, 6-[5-[(1S)-1-[[3-chloro-5-(1-cyano-1-methyl-ethyl)benzoyl]amino]ethyl]-3-methyl-1,2,4-triazol-1-yl]-N-ethyl-N-methyl-pyridine-3-carboxamide], for which, in [5], the pest or weed control at 5 µg/cm2, 5 µg/cm2 stood at 90%. Moreover, the mortality at 500 g/ha in test [6] was 100%. Moreover, the mortality at 100 g/ha in test [7] was found to be 100%. Further, the “nematicidal activity (gall formation)” value in test [11] turned out to be 100%.
For `C[C@H](NC(=O)c1cc(Cl)cc(Oc2ccc(F)cc2)c1)c1ncnn1-c1ccc(C#N)cn1` [Example I-9], in test [12] (4 μg/tick injected), the pest or weed control at 4 µg/tick was 100%. The pest or weed control at 20 µg/tick in test [12] (20 μg/tick injected) came out at 100%. Also, the pest or weed control at 5 µg/cm2, 5 µg/cm2 in test [5] amounted to 90%. Also, in test [11], the “nematicidal activity (gall formation)” value was determined as 90%.
In turn, `C[C@H](NC(=O)c1cc(OCC2CC2(Cl)Cl)cc(C(F)(F)F)c1)c1ncnn1-c1ncc(C#N)s1` (stereo partly drawn) [Example I-30] gave a mortality at 4 ppm in [3] of 90%. The pest or weed control at 5 µg/cm2, 5 µg/cm2 in test [8] was 80%. Moreover, the pest or weed control at 32 µg/disc, 100 g/ha in [10] was determined as 100%.
On to `C[C@H](NC(=O)c1cc(OC[S+](C)[O-])cc(C(F)(F)F)c1)c1ncnn1-c1ccc(C#N)cn1` (stereo partly drawn) [Example I-27, N-{(1S)-1-[1-(5-Cyanopyridin-2-yl)-1H-1,2,4-triazol-5-yl]ethyl}-3-[(methylsulfinyl)methoxy]-5-(trifluoromethyl)benzamide], for which, in test [1], the mortality at 4 mg/m2 fell in the range of 80 to 100% and the mortality at 20 mg/m2 lay in the range of 80 to 100%. This compound had a mortality at 4 ppm in test [3] of 100%. In addition, in [3] (20 ppm), the mortality at 20 ppm came to 100%. Also, the pest or weed control at 5 µg/cm2, 5 µg/cm2 in test [5] came out at 100%. In test [6], this compound had a mortality at 100 g/ha of 100% and a mortality at 500 g/ha of 100%. In test [7], this compound came in with a mortality at 100 g/ha of 100% and a mortality at 500 g/ha of 100%. The same compound yielded a mortality at 100 g/ha in [13] of 90%. In test [10], the pest or weed control at 32 µg/disc, 100 g/ha is 100% and the pest or weed control at 160 µg/disc, 500 g/ha worked out at 100%.
As for `C[C@H](NC(=O)c1cc(OCC(Cl)=C(Cl)Cl)cc(C(F)(F)F)c1)c1ncnn1-c1ccc(C#N)cn1` [Example I-24], in test [7], the mortality at 100 g/ha is 100% and the mortality at 500 g/ha stood at 100%. The “nematicidal activity (gall formation)” value in test [11] was found to be 90%. Moreover, in [10], the pest or weed control at 32 µg/disc, 100 g/ha came to 100% and the pest or weed control at 160 µg/disc, 500 g/ha is 100%.
On to `C[C@H](NC(=O)c1cc(Cl)cc(C(C)(C)C#N)c1)c1ncnn1-c1ccc(C#N)cn1` [Example I-33, 3-Chloro-5-(2-cyanopropan-2-yl)-N-{(1S)-1-[1-(5-cyanopyridin-2-yl)-1H-1,2,4-triazol-5-yl]ethyl}benzamide], for which the mortality at 4 mg/m2 in [1] and in [2] was 80 to 100% in each case. Also, the mortality at 20 mg/m2 in test [1], in test [2] and in test [4] was 80 to 100% each time. The same compound came in with a mortality at 4 ppm in test [3] of 100%. Moreover, the pest or weed control at 5 µg/cm2, 5 µg/cm2 in [5] is 100%; in test [8] it was 80%; in test [9], 100%. Moreover, the mortality at 100 g/ha in test [7] is 100%. For the same compound, the pest or weed control at 32 µg/disc, 100 g/ha in test [10] came to 100%.

These data come from US12653190B2, “Heteroaryl-triazole compounds as pesticides” (Bayer Aktiengesellschaft, priority 2020, dated 2026).
